According to paper PMC4501319, “Discovery of Selective Small-Molecule Activators of a Bacterial Glycoside Hydrolase” (Angewandte Chemie (International Ed. in English), 2014):

Legend:
BtGH84 [1] = molecular target: T1, BtGH84 (Bacteroides thetaiotaomicron, UniProt Q89ZI2); assay: Differential scanning fluorimetry (DSF); assay type: binding; settings: melting temperature of BtGH84; PUGNAc 200 μM
T1 construct: made in house
Description: constant (Ka) were obtained from this fitting, and were used to calculate the Gibbs free energy (ΔG) and […]
Crystallisation and structure determination
BtGH84 crystals were grown using the sitting-drop vapour diffusion method. 1 μl of 12 mg/ml BtGH84 was mixed with 1 μl of reservoir solution (0.1 M imidazole pH 8.0, 10% PEG8000 (w/v), 3% trimethylamine N-oxide dehydrate, 12% ethylene glycol) and the crystals were allowed to grow at room temperature for at least 2 days. Crystal soaking was performed by gradually adding well solution containing 10 mM PUGNac and 50 mM activator 2, and 10% DMSO. Crystals were picked up with a nylon fibre loop (Hampton Research) and plunged into liquid nitrogen. Data were collected at Diamond beamline I04 using a Pilatus 6M-F detector (Dectris) at 100 K. An oscillation range of 0.1° degree was chosen and 180° were collected. Data were indexed, integrated and scaled using XDS.[5] Indexing was chosen to be consistent with previous collected data using Pointless[6] and a direct refinement of the model against the data was carried out. […] The quality of the final model was evaluated using the MolProbity-Server.[10] […]
DSF experiments were performed in 96-well polypropylene PCR plates (Agilent 401334) with a final well volume of 25 µl. […] Data was analysed with a combination of the Agilent MxPro software, MTSA,[11] and the DSF analysis spreadsheet in Excel.[12] […]

BtGH84 [2] = molecular target: T1, BtGH84; assay: 4MU-GlcNAc cleavage assay (fluorescent kinetic enzyme activity assay); assay type: biochemical; settings: in the presence of 4mM activator 2 versus absence
Description: (§1) AC50 measurements of fragment activators were performed using a fluorescent kinetic assay. Assays were carried out in a 96 well plate (Black Nunc F96 MicroWell Plates) at 25°C in a total volume of 100 μl per well, buffer (50 mM MES pH 6.5, 200 mM NaCl, 0.01% Tween-20, 1% DMSO) with 500 μM 4-methylumbelliferyl-β-D-GlcNAc (4MU-GlcNAc), as substrate and 50 nM BtGH84. Reactions were initiated by addition of 10 μl of substrate, to a final concentration of 500 μM, followed by 5 s of shaking. Fluorescent 4-methylumbelliferyl release was recorded continuously at 355 nm excitation and 460 nm emission for 20 s using a BMG PolarStar Optima plate reader. Rates were calculated using Sigmaplot as the slope of the curve of the collected data. Corrections were made to the detected gradients to adjust for the inner filter effect of 4MU-GlcNAc and convert the gradients into units of μmol min-1 according to a standard curve of 4MU. […]
Kinetic experiments using 4MU-GlcNAc were carried out in an analogous manner except that reactions were initiated by a 10 μl injection of BtGH84, to a final concentration of 50 nM, in a well containing the substrate at the desired concentration. Values quoted throughout are mean and standard deviation of three independent […]
Apparent KM and Vmax values were calculated from a Michalis-Menten curve fit to 8-10 point substrate titrations at a constant concentration of the activator. The covariation experiments used the same range of substrate concentrations across an activator concentration range of 50 µM to 2 mM. The data obtained from these experiments was fit to the nonessential activator equation: […]
Here, [S] is the concentration of the […], [A] the concentration of the activator, α modifies KM, β modifies Vmax and KA is the half-max concentration of the activator. […]

BtGH84 [3] = molecular target: T1, BtGH84; assay: Isothermal titration calorimetry (ITC); assay type: binding; settings: 25°C
Description: as §1, with “4MU. The initial slopes were fitted to four-parameter sigmoidal dose response curves using SigmaPlot and the AC50 values extracted.” for “4MU.”
Apparent KM and Vmax values were calculated from a Michalis-Menten curve fit to 8-10 point substrate titrations at a constant concentration of the activator. […]

T1 sequence (Q89ZI2 22-737, change not shown): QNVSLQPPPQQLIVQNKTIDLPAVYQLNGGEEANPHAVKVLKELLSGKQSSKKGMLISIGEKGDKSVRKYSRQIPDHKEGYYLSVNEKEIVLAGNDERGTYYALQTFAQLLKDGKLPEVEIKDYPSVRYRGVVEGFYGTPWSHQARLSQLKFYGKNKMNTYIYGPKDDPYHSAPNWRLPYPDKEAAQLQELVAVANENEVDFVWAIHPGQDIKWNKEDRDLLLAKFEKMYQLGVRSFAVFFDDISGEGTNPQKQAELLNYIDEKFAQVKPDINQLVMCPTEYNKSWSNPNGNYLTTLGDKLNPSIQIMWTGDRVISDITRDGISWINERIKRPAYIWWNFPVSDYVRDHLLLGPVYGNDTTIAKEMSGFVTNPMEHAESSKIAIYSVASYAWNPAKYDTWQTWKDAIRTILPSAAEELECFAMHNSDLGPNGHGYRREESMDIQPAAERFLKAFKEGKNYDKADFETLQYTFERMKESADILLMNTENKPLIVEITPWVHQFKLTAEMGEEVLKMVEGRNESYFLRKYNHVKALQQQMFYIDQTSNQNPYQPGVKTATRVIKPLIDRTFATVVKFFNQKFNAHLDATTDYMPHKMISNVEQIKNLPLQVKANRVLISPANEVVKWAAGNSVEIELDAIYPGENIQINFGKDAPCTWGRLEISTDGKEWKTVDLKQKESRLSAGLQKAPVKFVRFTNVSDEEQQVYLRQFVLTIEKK

CC(=O)N[C@H]1/C(=N/OC(=O)Nc2ccccc2)O[C@H](CO)[C@@H](O)[C@@H]1O [PUGNAc, O-(2-Acetamido-2-deoxy-D-glucopyranosylidene) amino-Z-N-phenylcarbamate]
increase of Tm (BtGH84 [1]): 3 °C
IC50 (change) (BtGH84 [2]): reduced
Kd (BtGH84 [3]; in the absence of 2): 3900 ± 120 nM
Kd (BtGH84 [3]; in the presence of 2 (10 mM)): 1100 ± 240 nM
